Assay results: patent US5994361A, “Substituted purinyl derivatives with immunomodulating activity” (priority 1995, dated 1999)

Tests used:
virus = conditions: cited from earlier work
blood cells [1] = assay: Immunophenotyping on blood cells, combination with 5 Fluorouracil; type: in vivo, C57/BLJ6 mice; conditions: 5 FU 80 mg/kg alone, N = 4
Experimental: (§1) After in vivo drugs analysis, the drugs were evaluated on whole blood for drug stability and toxicity. Furthermore, in vivo/ex vivo analysis was performed on normal and cyclophosphamide immunosuppressed animals plus 5Fu-treated animals. Cell immunophenotyping was performed on mouse-treatedblood and spleen. The following cell surface antigens were analyzed:
(§2) CD3 (all T cells), CD4 (T helper/inducer, binds class II-restricted T cells), CD8a (cytotoxic T cells, CTL adhesion), CD11a (T, B, NK, some stem cells, CTL adhesion anti LFA-1α), MAC-1 (monocyte/macrophage), NK (natural killer cells), Ly5 (B cells), CD45 (all leukocytes, protein tyrosine phosphates), and TCR (T cell receptor).
(§3) C57/BLJ6 mice (6-8 weeks old) were injected daily for 4 consecutive days, sacrificed at day 5 and immunophenotyping was performed on blood and spleen cells.
(§4) The cells were washed twice in PBS, resuspended in 1 ml of RPMI 2% FBS, and incubated for 45 min. on ice with monoclonal antibody. The cells were washed once, fixed with 1% paraformaldehyde, then analyzed using XL Coulter® counter.

spleen cells = assay: Immunophenotyping on spleen cells, combination with 5 Fluorouracil; type: in vivo, C57/BLJ6 mice; conditions: 5 FU 80 mg/kg alone, N = 4
Experimental: as §1, §2, §3, §4

[2] = test system: MC38 colon adenocarcinoma; assay: Compound #1 with 5FU against colon adenocarcinoma (Example 95); type: in vivo, C57/BL mice
Experimental: C57/BL mice 6-8 weeks old (n=7-9/gr) were injected with 3×10^5 MC38 colon adenocarcinoma cells s.c. on day 0. On day 7, tumor-bearing mice were randomized and injected with 5FU at 20 mg/kg either alone or in combination with levamisole at 20 mg/kg i.p. or with compound #1 at 25 and 50 mg/kg i.p. over a four week period. During this period, animals were treated for 5 consecutive days, untreated for 2 days, and treated again for 5 consecutive days per week for 4 weeks.

[3] = cited from earlier work
immune system = conditions: prior art; cited from earlier work
[4] = Body weight, compound #1 with Cytoxan 28 mg/kg (Example 94); type: in vivo, Balb/c mice; set-up: body weight: unit not given here
Experimental: (§5) In another experiment, the CTX treatment was prolonged. Balb/c mice were injected s.c. with 5×10^5 DA-3 tumor cells at day 0. At day 4 when established tumors appeared, tumor-bearing animals were randomized (n=11/gr.) and injected with CTX (at 28 mg/kg) i.v. bolus injections at days 4, 11, and 18. […]

DA-3 mammary carcinoma [5] = assay: Compound #1 with Cytoxan 28 mg/kg against DA-3 mammary carcinoma, tumor sizes (Example 94); type: in vivo, Balb/c mice; set-up: key: tumor volume = length × width²/2
Experimental: (§6) Parameters of effect were measured by inhibition of tumor outgrowth and growth rate [tumors measured along the longest axis (length) and the perpendicular shortest axis (width) and the tumor volumes (T.V.±S.E.) was calculated by the formula T.V.=length (cm)×(width cm)^2 /2.] assessment of body weight loss.
as §5

blood cells [6] = assay: Immunophenotyping on blood cells, combination with cyclophosphamide; type: in vivo, C57/BLJ6 mice; conditions: cyclophosphamide 100 mg/kg alone, N = 4
Experimental: as §1, §2, §3, §4

DA-3 mammary carcinoma [7] = assay: Tumor outgrowth of breast carcinoma, with cyclophosphamide (Example 92); type: in vivo, Balb/C mice; conditions: CY 100 mg/kg
Experimental: Balb/C Mice (n-5/Gr) were used along with DA-3 mammary carcinoma cell line. The mice were treated from -2 to 13 days. Animals were monitored for tumor takes/tumor size and body weights for three weeks from Day 0 until Day 21. D0 was the day of tumor cell inoculation and D21 was the day of experiment termination.
as §6
The statistical significance of difference between tumor takes and tumor sizes of control-untreated and drug-treated groups is estimated using the Chi-square and Student's t tests respectively with significance determined at n<0.05.
The mice were divided into the following 5 groups:
Gr.1--Normal Saline (0.2 ml/mouse i.p. starting at D2)
Gr.2--CY (100 mg/kg single bolus i.v. at D0)
Gr.3--Compound #1 (25 mg/kg i.p. starting at D2)
Gr.4--Compound #1 (50 mg/kg i.p. starting at D2)
Gr.5--CY (100 mg/kg i.v. at D0+compound #1 50 mg/kg i.p. starting at D2)

[8] = single agent (CTX 28 mg/kg days 4, 11, 18, or BCH-1393 50 mg/kg days 3-28), day 4
[9] = single agent (CTX 28 mg/kg or BCH-1393 50 mg/kg), day 7
[10] = single agent (CTX 28 mg/kg or BCH-1393 50 mg/kg), day 9
[11] = single agent (CTX 28 mg/kg or BCH-1393 50 mg/kg), day 11
[12] = single agent (CTX 28 mg/kg or BCH-1393 50 mg/kg), day 14
[13] = single agent (CTX 28 mg/kg or BCH-1393 50 mg/kg), day 16
[14] = single agent (CTX 28 mg/kg or BCH-1393 50 mg/kg), day 18
[15] = single agent (CTX 28 mg/kg or BCH-1393 50 mg/kg), day 21
[16] = single agent (CTX 28 mg/kg or BCH-1393 50 mg/kg), day 23
[17] = single agent (CTX 28 mg/kg or BCH-1393 50 mg/kg), day 25
[18] = single agent (CTX 28 mg/kg or BCH-1393 50 mg/kg), day 28
[19] = single agent (CTX 28 mg/kg or BCH-1393 50 mg/kg), day 30

Nc1nc2c(ccn2[C@@H]2O[C@H](CO)[C@@H](O)[C@H]2O)c(=O)[nH]1 [7-deazaguanosine]
immunostimulatory and antiviral activity (virus; after oral administration, preliminary): significant immunostimulatory and antiviral activity after oral administration

O=c1[nH]cc(F)c(=O)[nH]1 [5 FU, 5-fluorouracil, reference compound]
CD8+ CD45+ (mean) (blood cells [1]): 6.66
NK+ (mean) (blood cells [1]): 3.24
CD4+ CD45- (mean) (spleen cells): 10.0
NK+ (mean) (spleen cells): 4.22
anti-tumor response ([2]; 5FU 20 mg/kg alone): moderate anti-tumor response

Nc1nc2c(sc(=O)n2[C@@H]2O[C@H](CO)[C@@H](O)[C@H]2O)c(=O)[nH]1 [7-thia-8-oxoguanosine]
oral bioavailability [3]: lack of oral bioavailability
immunomodulating activity (immune system): activate NK and B cells in the immune system, and to induce interferon
antiviral results (virus; humans): few encouraging results

c1ccc([C@H]2CN3CCSC3=N2)cc1 [Levamisole, levamisole]
adverse effect ([3]; adjuvant levamisole therapy for malignant melanoma): induces serious thrombocytopenia
anti-tumor response ([2]; 5FU 20 mg/kg plus Levamisole 20 mg/kg): moderate anti-tumor response

O=P1(N(CCCl)CCCl)NCCCO1 (stereo not shown) [cyclophosphamide, reference compound]
body weight [4, 8]: 19.2
body weight [4, 9]: 19.8
body weight [4, 10]: 19.8
body weight [4, 11]: 19.9
body weight [4, 12]: 19.2
body weight [4, 13]: 19.7
body weight [4, 14]: 19.6
body weight [4, 15]: 19.8
body weight [4, 16]: 19.7
body weight [4, 17]: 20.1
body weight [4, 18]: 20.3
body weight [4, 19]: 20.4
tumor size (DA-3 mammary carcinoma [5]; [8]): 4.2
tumor size (DA-3 mammary carcinoma [5]; [9]): 10.5
tumor size (DA-3 mammary carcinoma [5]; [10]): 18.6
tumor size (DA-3 mammary carcinoma [5]; [11]): 30.7
tumor size (DA-3 mammary carcinoma [5]; [12]): 50.6
tumor size (DA-3 mammary carcinoma [5]; [13]): 54.5
tumor size (DA-3 mammary carcinoma [5]; [14]): 63.4
tumor size (DA-3 mammary carcinoma [5]; [15]): 88.5
tumor size (DA-3 mammary carcinoma [5]; [16]): 93.4
tumor size (DA-3 mammary carcinoma [5]; [17]): 106.3
tumor size (DA-3 mammary carcinoma [5]; [18]): 130.9
tumor size (DA-3 mammary carcinoma [5]; [19]): 151.6
CP8+ CD45+ (mean) (blood cells [6]): 15.05
Tumor takes (DA-3 mammary carcinoma [7]; day 4): 5/5
Tumor takes (DA-3 mammary carcinoma [7]; day 6): 5/5
Tumor takes (DA-3 mammary carcinoma [7]; day 8): 5/5
Tumor takes (DA-3 mammary carcinoma [7]; day 10): 5/5
